# How the values were obtained:
# A2780cis cells = experiment: Cell Titer Glo cell viability after cisplatin, resistant versus sensitive line; assay type: cell-based, human; details: cisplatin 0.01 to 10 μM, 72 hours
# Method: The A2780 human ovarian cancer cell line was originally established from tumor tissue from an untreated patient. The A2780cis cell line is cisplatin-resistant (Cat. #93112517, Sigma). […] A2780cis is cross-resistant to melphalan, adriamycin and irradiation.
# Cell viability is measured using the Cell Titer Glo assay (Cat. # G7570, Promega) according to the manufacturer's instructions.
# Cell viability was measured by the Cell Titer Glo assay which measures metabolically active cells by quantitating ATP.
# pAKT in A2780 cells = experiment: pAKT (ser473) western blot in cisplatin-sensitive cells; assay type: cell-based, human; details: cisplatin 0.1 to 10 μM, especially after 24 hours and/or 10 μM
# Method: (§1) After incubation cell lysates are prepared and analyzed for pAKT (ser473) (Cat #9271 Cell Signaling Technologies) by western blot.
# (§2) The effect of MM-121 on the AKT pathway is determined by treating sensitive (A2780) and resistant (A2780cis) cells with a dose range of MM-121 ((0.01 to 1 μM) in vitro for 1, 4, 24 or 72 hours. After incubation cell lysates are prepared and analyzed for pAKT (ser473) (Cat. #9271 Cell Signaling Technologies) by western blot.
# (§3) Cell lysates are analyzed by western blot for pAKT.
# pAKT in A2780cis cells = experiment: pAKT (ser473) western blot in cisplatin-resistant cells; assay type: cell-based, human; details: cisplatin 0.1 to 10 μM or MM-121 0.01 to 1 μM, 1, 4, 24 or 72 hours
# Method: as §1, §2, §3
# [1] = tested on: ErbB3, Akt and ERK1/2 signaling in BT474-M3-GFP-HRG tumors; experiment: Target and downstream signaling in BT474-M3-GFP-HRG tumor lysates (Luminex, western blot); assay type: in vivo, mice; details: for activity in reducing pErbB3 levels with tumoral HRG expression: versus BT474-M3-GFP; for ratio of pERK and totERK levels / ratio of pErbB3 to total ErbB3 / ratio of phospho-Akt to total Akt: in the presence of HRG
# Method: (§4) At the end of study (21 or 25 days after initiation of treatment for BT474-M3-GFP-HRG and BT474-M3-GFP, respectively) tumor samples were collected (24 h after the last MM-111 and 6 h after the last lapatinib dose) and analyzed for target and downstream signaling inhibition. Total and phosphorylated ErbB3 and Akt protein levels were analyzed from tumor lysates by suspension array technology (Luminex) and total and phosphorylated Erk1/2 levels by western blot using PCNA to normalize the results.
# BT474-M3 cells = experiment: In vitro breast cancer model, viable cell count after 6 days; assay type: cell-based
# [2] = tested on: pAKT in heregulin-stimulated BT474-M3 cells; experiment: Inhibition of AKT phosphorylation in heregulin-stimulated cells; assay type: cell-based; details: dose range
# NCI-N87 tumors = details: paclitaxel 20 mpk q7d, trastuzumab 3.5 mpk q3d, MM-111 48 mpk q3d
# Method: 7.5×10^6 NCI-N87 cells were implanted subcutaneously in the flanks of female Nu/Nu mice. When tumor volumes reached on average 341 mm^3 (on day 24 after tumor implantation) mice were segregated into 4 groups of 10 mice. […] Tumors were measured twice a week with a digital caliper.
# BT474-M3-GFP-HRG tumors = experiment: BT474-M3-GFP-HRG tumor xenograft growth; assay type: in vivo, mice; details: Example 10; MM-111 48 mpk q3d i.p., tamoxifen 5 mg; versus BT474-M3-GFP
# Method: 15×10^6 BT474-M3 cells engineered to express GFP (BT474-M3-GFP) or BT474-M3 cells engineered to express GFP and heregulin 1 (BT474-M3-GFP-HRG) were implanted in to the mammary fat pads of estrogen supplemented (0.72 mg 17β-estradiol in a 60-day slow release biodegradable carrier) female NCr/NU-mice (Taconic Farms, Inc). When tumor volumes reached on average 516 mm^3 (BT474-M3-GFP-HRG on day 17 after tumor implantation) or 422 mm^3 (BT474-M3-GFP on day 20 after tumor implantation), mice were segregated into 8 groups of 10-15 mice. Groups received either no treatment (Control), MM-111 (48 mpk q3d i.p. (dose every three days, intraperitoneally)), lapatinib (150 mpk qd p.o. (oral dose daily)), tamoxifen (5 mg free base tamoxifen in a 60-day slow release biodegradable carrier), MM-111 and lapatinib, MM-111 and tamoxifen, lapatinib and tamoxifen or MM-111, lapatinib and tamoxifen. Tumors were measured twice a week with a digital caliber.
# [3] = tested on: BT474-M3 breast cancer xenograft; experiment: BT474-M3 breast cancer xenograft model; assay type: in vivo, mice; details: MM-111 3 mg/kg every 3 days, trastuzumab 1 mg/kg weekly
# Method: BT474-M3 cells (2×10^7 cells per mice) are inoculated subcutaneously into Nu/Nu immunodeficient mice, which are implanted with an estrogen pellet (0.72 mg; 60-day release) one day before the experiment. […] Tumors are measured twice a week and the experiment is ended at day 40.
# [4] = tested on: trastuzumab-resistant BT474-M3 cell spheroids; experiment: Spheroid assay, trastuzumab-resistant cells; assay type: cell-based
# Method: (§5) Cells are cultured for six days. Spheroids are then examined by Nikon microscope and analyzed by MetaMorph® Image Analysis Software (Molecular Devices). The spheroid size from cells cultured in medium containing 10% FBS is set as a control.
# [5] = tested on: BT474-M3 wild type cell spheroids; experiment: Spheroid assay, parental cells; assay type: cell-based; details: series dilution, six days
# Method: as §5
# [6] = tested on: trastuzumab-resistant BT474-M3 cells; experiment: Cell proliferation assay (WST-1), trastuzumab-resistant cells; assay type: cell-based; details: series dilution, five days
# Method: (§6) After five days of treatment, cell viability is measured by WST-1 (Roche, Cat. #5015944001) according to manufacturer's instructions. Cells treated with control (RPMI1640 with 10% FBS) are set as 100%, other treatments are expressed as percentage of the control.
# [7] = tested on: ErbB3, Akt and ERK1/2 signaling in BT474-M3-GFP tumors; experiment: Target and downstream signaling in BT474-M3-GFP tumor lysates (Luminex, western blot); assay type: in vivo, mice; details: end of study tumor lysates
# Method: as §4
# [8] = tested on: BT474-M3 parental (wild-type) cells; experiment: Cell proliferation assay (WST-1), parental cells; assay type: cell-based; details: series dilution, five days
# Method: as §6
# [9] = tested on: EGFR wild-type NSCLC cell lines; experiment: Spheroid assay (CellTiter Glo live cell density) in EGFR wild-type NSCLC cell lines; assay type: cell-based
# Method: The cell lines bear no mutations within their EGFR genes and represent three distinct histological subtypes (see Table X below). Cells harboring Ras mutations are indicated.
# Relative live cell densities were then determined using the CellTiter Glo® reagent (Promega).
# [10] = tested on: heregulin-induced phosphorylation of ErbB3, AKT and ERK in ACHN, Du145 and OvCAR8 cells; experiment: ELISA of heregulin-induced pErbB3, pAKT and pERK in cell lysates; assay type: cell-based
# Method: In the first set of experiments, three cancer cell lines (ACHN (renal cell adenocarcinoma, ATCC® #CRL-1611™), Du145 (prostate carcinoma, ATCC® #HTB-81™) and OvCAR 8 (ovarian adenocarcinoma, ATCC® #HTB-161™) cell lines; obtained from the National Cancer Institute's Developmental Therapeutics Program) were seeded at 35,000 cells per well in 96-well plates and grown overnight (maintenance culture medium was RPMI-1640 media supplemented with 10% fetal calf serum, 2 mM L-glutamine, and Pen-Strep; cells were grown in a humidified atmosphere at 5% CO2, 95% air at 37° C.). Cells were synchronized by 20-24 hour serum starvation. The cells were then pre-incubated with 4-fold serial dilutions, ranging from […] to 7.6 pM, of MM-121 for 30 minutes. […]
# For ELISA analysis of cell lysates, capture antibodies against ErbB1 (R&D Systems AF231), ErbB2 (R&D Systems, MAB1129), ErbB3 (R&D Systems, MAB 3481) and AKT (Upstate, 05-591 MG) were incubated in 384 well black flat-bottom polystyrene high-binding plates (Corning, 3708) overnight at room temperature. […] All ELISAs were visualized with SuperSignal® ELISA Pico Chemiluminescent Substrate (Pierce, Cat. #37069) and luminescent signal was measured using a luminometer.
# Inhibitor IC50 values were calculated by least-squares fitting the dose response data with a sigmoidal curve (GraphPad Prism®, GraphPad Software, Inc., La Jolla, Calif.).
# [11] = in the presence of 5 nM heregulin
molecule,measurement,setting,value
N.N.[Cl][Pt][Cl] [cisplatin],"cell viability (percentage of media control), A2780cis versus A2780",A2780cis cells,much greater viability
same,pAKT production,pAKT in A2780 cells,decrease in pAKT production
same,pAKT production,pAKT in A2780cis cells,no effect on pAKT production
"CS(=O)(=O)CCNCc1ccc(-c2ccc3ncnc(Nc4ccc(OCc5cccc(F)c5)c(Cl)c4)c3c2)o1 [lapatinib, reference compound]",activity in reducing pErbB3 levels with tumoral HRG expression,[1]; end of study tumor lysates,decreased
same,ratio of pERK and totERK levels,[1],decreased effectiveness
same,ratio of pErbB3 to total ErbB3,[1],effectiveness was reduced in the presence of HRG
same,ratio of phospho-Akt to total Akt,[1],decreased effectiveness
same,inhibition of cell proliferation,BT474-M3 cells; basal conditions,50%
same,inhibition of cell proliferation,BT474-M3 cells; [11],23%
same,inhibition of AKT phosphorylation,[2],inhibited phosphorylation of AKT
CC(=O)O[C@H]1C(=O)[C@@]2(C)[C@H]([C@H](OC(=O)c3ccccc3)[C@]3(O)C[C@H](OC(=O)[C@H](O)[C@@H](NC(=O)c4ccccc4)c4ccccc4)C(C)=C1C3(C)C)[C@]1(OC(C)=O)CO[C@@H]1C[C@@H]2O [paclitaxel],tumor growth,NCI-N87 tumors,only tumor stasis at best
"CC/C(=C(\c1ccccc1)c1ccc(OCCN(C)C)cc1)c1ccccc1 [tamoxifen, reference compound]",effect of tumoral HRG overexpression on efficacy (tumor volume),BT474-M3-GFP-HRG tumors,improved
"MM-111: bispecific anti-ErbB3, anti-ErbB2 antibody, two scFvs in a Human Serum Albumin conjugate, SEQ ID NO:44",completely regressed tumors,[3],no complete regressions were observed
same,total ErbB3 expression,[1]; end of study tumor lysates,increased total ErbB3 expression
same,activity in reducing pErbB3 levels with tumoral HRG expression,[1]; end of study tumor lysates,increased effectiveness
same,ratio of pERK and totERK levels,[1],effective at reducing pERK production in the presence of HRG
same,ratio of pErbB3 to total ErbB3,[1],decreased ErbB3 activity even in the presence of HRG
same,ratio of phospho-Akt to total Akt,[1],effective at reducing pAkt production in the presence of HRG
same,inhibition of spheroid growth in combination with gefitinib,[4]; in the presence of 100 nM gefitinib,effective at inhibiting cell growth
same,inhibition of spheroid growth in combination with erlotinib,[4]; in the presence of 300 nM erlotinib,effective at inhibiting cell growth
same,inhibitory activity in trastuzumab-resistant cells compared with wild-type cells,[4]; spheroids,slightly improved
same,inhibition of spheroid growth,"[4]; trastuzumab-resistant cells, series dilution, six days",significantly reduced spheroid growth
same,inhibition of spheroid growth,[5],significantly reduced spheroid growth
same,inhibition of cell proliferation,BT474-M3 cells; basal conditions,24%
same,inhibition of cell proliferation,BT474-M3 cells; [11],33%
same,inhibition of cell proliferation,[6],maintained similar inhibitory activity
same,total ErbB3 expression,[7],increased total ErbB3 expression
same,inhibition of cell proliferation,[8],maintained similar inhibitory activity
same,effect of tumoral HRG overexpression on efficacy (tumor volume),BT474-M3-GFP-HRG tumors,modestly improved
"MM-121: fully human anti-ErbB3 antibody, VH and VL sequences SEQ ID NOs: 1 and 2 (antibody, V domains shown) VH: EVQLLESGGGLVQPGGSLRLSCAASGFTFSHYVMAWVRQAPGKGLEWVSSISSSGGWTLYADSVKGRFTISRDNSKNTLYLQMNSLRAEDTAVYYCTRGLKMATIFDYWGQGTLVTVSS VL: QSALTQPASVSGSPGQSITISCTGTSSDVGSYNVVSWYQQHPGKAPKLIIYEVSQRPSGVSNRFSGSKSGNTASLTISGLQTEDEADYYCCSYAGSSIFVIFGGGTKVTVL","effect on sensitivity of spheroids to erlotinib, dose range","[9]; 1 μM MM-121 added to erlotinib 0 to 10 μM, 10 nM HRG, all eight cell lines",restore sensitivity of the spheroids to erlotinib
same,effect on sensitivity of the cells to erlotinib,"[9]; MM-121 1 μM with erlotinib 1 μM, HRG-stimulated cells, all five cell lines",greatly improve sensitivity of the cells to erlotinib
same,"inhibition of HRG-induced ErbB3, AKT and ERK phosphorylation","[10]; MM-121 2 mM to 7.6 pM pre-incubated 30 minutes, 25 nM heregulin 10 minutes, versus HRG control","inhibits HRG-induced ErbB3, AKT and ERK phosphorylation"
same,"maximal inhibition of pErbB3, pAKT and pERK relative to unstimulated control",[10]; in most cases,near or below basal signaling levels
same,pAKT production,pAKT in A2780cis cells,gradual decrease in pAKT production at all dose levels

# Source: patent US20150231238A1, “OVERCOMING RESISTANCE TO ERBB PATHWAY INHIBITORS” (MERRIMACK PHARMACEUTICALS, INC., priority 2011, published 2015)
